Columns and labels:
[1] = tested on: A549/OPNluc cells; assay: WST assay (cell growth inhibition); type: cell-based; conditions: Homo sapiens, 48±4 hours, WST-1, read-out: IC50 (concentration for 50% inhibition of cell growth)
Excerpt: (§1) A reporter vector pOPN1-luc obtained by inserting a human OPN promoter sequence (−765 to 23) into the multiple cloning site of pGL-3 basic vector (Promega) expresses luciferase when transfected into animal cells. This pOPN1-luc was transfected into a human non-small cell lung cancer-derived cell line A549 together with pPUR (Clontech) that expresses a puromycin resistance gene (puromycin-N-acetyl-transferase gene), and cells that could grow in a puromycin-supplemented medium and expressed luciferase were selected. The selected cells were named A549/OPNluc cells and used for observation of luciferase expression inhibitory effect under control of OPN promoter, as described later.
(§2) A test compound was added to a culture liquid containing A549/OPNluc cells to observe its influence on the amount of luciferase expressed in the cells. Here, it can be considered that when the test compound has cytotoxity or cell growth-suppressing effect, the total expression level of luciferase is reduced due to a reduction in the number of living cells that depends on the concentration of the test compound, and therefore the luciferase expression inhibitory effect of the test compound under control of OPN promoter cannot be properly evaluated. For this reason, WST assay for quantification of cell proliferation ability or cell viability by colorimetric measurement was first performed to determine IC50 (concentration for 50% inhibition of cell growth) of the test compound for cell growth. Then, luciferase activity measurement was performed to determine EC50 (concentration for 50% inhibition of luciferase expression) of the test compound for luciferase expression under control of OPN promoter.
A549/OPNluc cells were suspended in DMEM medium containing 10% fetal calf serum (FCS) and 1% penicillin/streptomycin (P/S) at 3×10^4 cells/mL to obtain a cell suspension, and 100 μL of the cell suspension was dispensed into each well of a 96-well plate. In order to perform the assay in triplicate, 3 wells were prepared for a control group and 3 wells were prepared for each test compound-treated group at each concentration. After the dispensing, the 96-well plate was incubated in a CO2 incubator (at 37° C. and 5% CO2) for 24±4 hours.
The test compound was dissolved in dimethylsulfoxide (DMSO) to obtain a 50 mmol/L solution, and the test compound solution was stored at −80° C. The test compound solution was diluted with DMSO in 2-fold dilution series (usually, in the range of 0.31 mmol/L to 20 mmol/L) to prepare test compound solutions whose concentration varied by two fold for WST assay.
Only DMSO (control) or the diluted test compound (sample) solution was dispensed in an amount of 0.5 μL into each well containing the cell suspension (200-fold dilution). The solution in each well was mixed with a vortex mixer, and then the 96-well plate was incubated in a CO2 incubator (at 37° C. and 5% CO2) for 48±4 hours. Then, 10 μL of Premix WST-1 Reagent (TAKARA BIO INC.) was added to each well. The solution in each well was mixed with a vortex mixer, and then the 96-well plate was incubated at 37° C. and 5% CO2. After 60 minutes or 120 minutes, absorbance values (450 nm) were measured using a microplate reader (Bio-Rad; Benchmark or Thermo Scientific; Varioskan Flash).
(§3) The absorbance values of the control wells and the absorbance values of the sample wells at each concentration were input into an Excel file to determine the percentages of absorbance values of the sample wells at each concentration with respect to the average of absorbance values of the control wells. From the determined values, a fitted curve was determined by the method of least squares to calculate IC50.

[2] = tested on: human OPN promoter (pOPN1-luc) in A549/OPNluc cells; assay: Luciferase assay: luciferase expression under control of OPN promoter; type: cell-based; conditions: for EC50 value relative to respective IC50 value: EC50 luciferase assay vs IC50 WST assay; for EC50: Homo sapiens, 48±4 hours, read-out: EC50 (concentration for 50% inhibition of luciferase expression under control of OPN promoter)
Excerpt: as §1, §2
The same steps as in the above-described WST assay were performed in which only DMSO (control) or the diluted test compound (sample) solution was added in an amount of 0.5 μL to each well containing the cell suspension to achieve 200-fold dilution, and the solution in each well was mixed with a vortex mixer, and the 96-well plate was incubated in a CO2 incubator (at 37° C. and 5% CO2) for 48±4 hours.
A luciferase reagent was prepared by dissolving Luciferase Assay Substrate (hereinafter, referred to as “LAS”) supplied in Luciferase Assay Systems (Promega: Cat# E1500) with Luciferase Assay Buffer (LAB). 5× Cell Culture Lysis Reagent (hereinafter, referred to as “CCLR”) was diluted with water 5-fold to prepare 1×CCLR.
After the incubation for 48±4 hours, the medium in each well was completely removed, and 50 μL of 1×CCLR was dispensed into each well. The 96-well plate was allowed to stand at room temperature for 30 minutes, and then 1×CCLR in each well was used as an assay sample. The luciferase reagent of 100 μL was placed in a tube for chemiluminescence measurement, and 20 μL of the assay sample was added to the tube and mixed with the luciferase reagent to measure chemiluminescence (Relative Luminescence Intensity: RLU) using Tuner Design Luminometer 20/20 (Promega).
as §3, with “RLU” for “absorbance”, “file, and” for “file to determine”, “wells were determined.” for “wells.”, “these” for “the determined”, “EC50.” for “IC50.”

Row | SMILES | IC50 [1] | EC50 value relative to respective IC50 value [2] | EC50 [2]
1 | CCCCCCCCCCCC(O)[C@H]1C(=O)O[C@@H](C)C[C@@H]1C (stereo partly drawn) [Chemical formula 15] | 88 µM | ½ | 43.4 µM
2 | CCCCCCCCCCCC(=O)[C@@H]1C(=O)N[C@@H](C)C[C@H]1C [Chemical formula 4] | 42.5 µM | ½ | 19.7 µM
3 | CCCC(=O)C1=C(C)C[C@H](C)NC1=O [Chemical formula 10, (S)-3-butanoyl-5,6-dihydro-4,6-dimethyl-1H-pyridin-2-one] | 110 µM |  | 63 µM
4 | CCCCCCCC(=O)C1=C(C)C[C@H](C)OC1=O [Chemical formula 7] | > 100 µM |  | > 100 µM
5 | CCCCCCCC(=O)C1=C(C)C[C@H](C)NC1=O [Chemical formula 11, (S)-5,6-dihydro-4,6-dimethyl-3-octanoyl-1H-pyridin-2-one] | > 100 µM |  | > 100 µM
6 | CCCCCCCCCCCC(=O)C1=C(C)CC(C)(C)OC1=O [Chemical formula 1] | 129 µM | ½ | 24.4 µM
7 | CCCCCCCCCCCC(=O)[C@@H]1C(=O)O[C@@H](C)C[C@H]1C [Chemical formula 12] | > 50 µM |  | > 50 µM
8 | CCCCCCCCCCCC(=O)C1=C(C)C[C@@H](C)OC1=O [Chemical formula 8] | 111 µM | ½ | 55 µM
9 | CCCCCCCCCCC/C(OC(C)=O)=C1\C(=O)O[C@@H](C)C[C@@H]1C [Chemical formula 16] | > 100 µM | ½ | 31.1 µM
10 | CCCC(=O)C1=C(C)C[C@H](C)OC1=O [Chemical formula 6] | > 100 µM |  | > 100 µM
11 | COC(=O)CCCCCCC(=O)C1=C(C)C[C@H](C)OC1=O [Chemical formula 9, methyl (S)-8-(4,6-dimethyl-2-oxo-5,6-dihydro-2H-pyran-3-yl)-8-Oxooctanoate] | > 100 µM |  | > 100 µM
12 | CCCCCCCCCCCC(=O)[C@H]1C(=O)OC(C)(C)C[C@@H]1C [Chemical formula 14] | 54.1 µM |  | 29.5 µM
13 | CCCCCCCCCCCC(=O)C1=C(C)C[C@H](C)NC1=O [Chemical formula 2] | 59.1 µM | ½ | 29.5 µM
14 | CCCCCCCCCCCC(=O)[C@H]1C(=O)O[C@H](C)C[C@@H]1C [Chemical formula 13] | > 50 µM |  | > 50 µM
15 | CCCCCCCCCCCC(=O)C1=C(C)C[C@H](C)OC1=O [Chemical formula 5] | 129 µM |  | 63 µM

Source: patent US9463188B2, “Osteopontin production inhibitor containing dictyopyrone derivative or dihydrodictyopyrone derivative as active ingredient” (TOHOKU UNIVERSITY, priority 2013, dated 2016)
